Measurements reported in publication PMC7826463, “Pamiparib dose escalation in Chinese patients with non‐mucinous high‐grade ovarian cancer or advanced triple‐negative breast cancer” (Cancer Medicine, 2020).
Where “and” joins values, the source holds several entries; their conditions need not be identical. Identical values can stand only once. Entries after “also recorded” stand apart in the source; their conditions may differ. Like-named read-outs stand apart in the source and are kept apart here.

What was measured:
[1] = Plasma pharmacokinetics of pamiparib, single dose and steady state, non-compartmental; format: in vivo, human; details: for CL/F / Cmax / AUC(0-t) / AUC(0-inf): geometric mean (geometric CV%); for Cmax / AUC(0-t) / half-life / Tmax / AUC(0-inf): human, plasma; for half-life: geometric mean (range)
Protocol: (§1) Secondary objectives were assessment of PK parameters and antitumor activity. Blood samples for the PK analysis were collected at Cycle 1 on Days 1, 2, and 3. Pharmacokinetic sampling was performed at Cycle 1 on Day 1 (predose and at 0.5, 1, 2, 4, 6, 9, and 12 hours postdose), Day 2, Day 3, and Day 10 (predose and at 0.5, 1, 2, 4, 6, 9, and 12 hours postdose); then at Cycles 2 and 3 on Day 1 (predose and at 2 hours postdose). […] Tumor assessments were performed by the investigators at screening, every 6 weeks after the first dose of pamiparib in the 1st year, and every 12 weeks thereafter until progression, per RECIST v1.1. Patients completed the study at the time of their safety follow‐up visit; therefore, radiological assessment of disease progression was not performed after the safety follow‐up visit. Approximately 14 to 18 evaluable patients were expected to enroll in the phase 1 part of the study. The safety population included all patients who received ≥1 dose of pamiparib. The PK population included all patients for whom valid pamiparib PK parameters could be estimated. Antitumor activity per RECIST v1.1 was assessed in all evaluable patients. […] The population evaluable for CA‐125 response included patients in the safety population with baseline CA‐125 ≥2 x upper limit of normal. Descriptive statistics were used to summarize all study data. Continuous variables included the number of non‐missing observations, mean, standard deviation, median, minimum, and maximum. Categorical variables were summarized by their frequency and percentage. Progression‐free survival was estimated using the Kaplan–Meier method and the corresponding 95% confidence interval (CI) was constructed using Greenwood's formula. Standard PK parameters (i.e., area under the plasma concentration‐time curve [AUC] from time of drug administration; maximum plasma concentration [Cmax]; time to Cmax; elimination half‐life [t1/2]; apparent clearance; and apparent volume of distribution during terminal phase) were estimated and derived using standard non‐compartmental methods.

[2] = test system: non-mucinous high-grade ovarian cancer (HGOC); test: Antitumor activity per RECIST v1.1 (best overall response, ORR, CBR, PFS) in patients with HGOC; format: in vivo, human
Protocol: as §1

[3] = test system: triple-negative breast cancer (TNBC); test: Antitumor activity per RECIST v1.1 (best overall response, ORR, CBR, PFS) in patients with TNBC; format: in vivo, human
Protocol: as §1

[4] = test system: high-grade ovarian cancer (HGOC); test: CA-125 response per Gynecologic Cancer Intergroup in patients with HGOC; format: in vivo, human
Protocol: Among eligible patients with HGOC, carcinoma antigen 125 (CA‐125) response rate per Gynecologic Cancer Intergroup was also assessed. Patients with HGOC had CA‐125 tested in a local laboratory at baseline, every 6 weeks in the 1st year, and then, every 12 weeks thereafter. CA‐125 responses must have been confirmed and maintained for at least 28 days. Germline and tBRCA1/2 mutations were analyzed as predictive biomarkers of antitumor activity and resistance to pamiparib. BRCA mutations were assessed using next‐generation sequencing, performed by BGI Genomics Co., Ltd, using the germline (gBRCA) or somatic (tBRCA) Hereditary Breast and Ovarian Cancer Test. Approximately 14 to 18 evaluable patients were expected to enroll in the phase 1 part of the study. The safety population included all patients who received ≥1 dose of pamiparib. The PK population included all patients for whom valid pamiparib PK parameters could be estimated. Antitumor activity per RECIST v1.1 was assessed in all evaluable patients. […] The population evaluable for CA‐125 response included patients in the safety population with baseline CA‐125 ≥2 x upper limit of normal.

[5] = test system: PARP1/2; details: cited from earlier work
[6] = test system: patients with advanced solid tumors; details: cited from earlier work
[7] = HGOC (n = 8), RECIST efficacy-evaluable
[8] = HGOC (n = 8), RECIST efficacy-evaluable, 20-60 mg BID
[9] = TNBC (n = 5), RECIST efficacy-evaluable
[10] = TNBC (n = 5), RECIST efficacy-evaluable, 20-60 mg BID
[11] = TNBC (n=6), Kaplan-Meier, NE, not estimable

C[C@]12CCCN1CC1=NNC(=O)c3cc(F)cc4[nH]c2c1c34 [pamiparib, Pamiparib]
Accumulation ratio, AUC0-12 ([1]; 20 mg BID, n 4): 2.05
Accumulation ratio, Cmax ([1]; 20 mg BID, n 4): 1.78
Accumulation ratio, AUC0-12 ([1]; 40 mg BID, n 4): 3.95
Accumulation ratio, Cmax ([1]; 40 mg BID, n 4): 3.19
Accumulation ratio, AUC0-12 ([1]; 60 mg BID, n 5): 3.4 and 3.36
Accumulation ratio, Cmax ([1]; 60 mg BID, n 5): 2.6 and 2.62
CL/F ([1]; Single dose, 20 mg BID cohort, N 4): 1.95 (44) L/hr
CL/F ([1]; Single dose, 40 mg BID cohort, N 4): 2.07 (61) L/hr
CL/F ([1]; Single dose, 60 mg BID cohort, N 7): 2.19 (79) L/hr
Dose proportionality of plasma exposure (AUC and Cmax) ([1]; between 20 mg and 60 mg BID, after a single dose): increased near proportionally; also recorded: near dose‐proportional
Cmax ([1]; oral, 20 mg, Single dose, 20 mg BID cohort, N 4, plasma): 0.718 µg/mL
AUC(0-t) ([1]; oral, 20 mg, Single dose, 20 mg BID cohort, N 4, read-out: AUC0-9): 4.13 µg·h/mL
AUC(0-t) ([1]; oral, 20 mg, Single dose, 20 mg BID cohort, N 4, read-out: AUC0-12): 5.03 µg·h/mL
half-life ([1]; oral, 20 mg, Single dose, 20 mg BID cohort, N 4): 12.1 h
Tmax ([1]; oral, 20 mg, Single dose, 20 mg BID cohort, N 4, median (range), read-out: Tmax): 1.01 h
Cmax ([1]; oral, 20 mg, Steady state (Cycle 1 Day 10), 20 mg BID, N 4): 1.28 µg/mL
AUC(0-t) ([1]; oral, 20 mg, Steady state (Cycle 1 Day 10), 20 mg BID, N 4, read-out: AUC0-9): 8.36 µg·h/mL
AUC(0-t) ([1]; oral, 20 mg, Steady state (Cycle 1 Day 10), 20 mg BID, N 4, read-out: AUC0-12): 10.3 µg·h/mL
Tmax ([1]; oral, 20 mg, Steady state (Cycle 1 Day 10), 20 mg BID, N 4, median (range), read-out: Tmax): 1.04 h
Cmax ([1]; oral, 40 mg, Single dose, 40 mg BID cohort, N 4, plasma): 1.63 µg/mL
AUC(0-t) ([1]; oral, 40 mg, Single dose, 40 mg BID cohort, N 4, read-out: AUC0-9): 8.56 µg·h/mL
AUC(0-t) ([1]; oral, 40 mg, Single dose, 40 mg BID cohort, N 4, read-out: AUC0-12): 10.4 µg·h/mL
half-life ([1]; oral, 40 mg, Single dose, 40 mg BID cohort, N 4): 11.8 h
Tmax ([1]; oral, 40 mg, Single dose, 40 mg BID cohort, N 4, median (range), read-out: Tmax): 0.98 h
Cmax ([1]; oral, 40 mg, Steady state (Cycle 1 Day 10), 40 mg BID, N 4): 5.21 µg/mL
AUC(0-t) ([1]; oral, 40 mg, Steady state (Cycle 1 Day 10), 40 mg BID, N 4, read-out: AUC0-9): 32.5 µg·h/mL
AUC(0-t) ([1]; oral, 40 mg, Steady state (Cycle 1 Day 10), 40 mg BID, N 4, read-out: AUC0-12): 40.9 µg·h/mL
Tmax ([1]; oral, 40 mg, Steady state (Cycle 1 Day 10), 40 mg BID, N 4, median (range), read-out: Tmax): 1.1 h
Cmax ([1]; oral, 60 mg, Single dose, 60 mg BID cohort, N 7, plasma): 2.3 µg/mL
AUC(0-t) ([1]; oral, 60 mg, Single dose, 60 mg BID cohort, N 7, read-out: AUC0-9): 11.9 µg·h/mL
AUC(0-t) ([1]; oral, 60 mg, Single dose, 60 mg BID cohort, N 7, read-out: AUC0-12): 14.8 µg·h/mL
half-life ([1]; oral, 60 mg, Single dose, 60 mg BID cohort, N 7): ~14 h
Tmax ([1]; oral, 60 mg, Single dose, 60 mg BID cohort, N 7, median (range), read-out: Tmax): 1.13 h
Cmax ([1]; oral, 60 mg, Steady state (Cycle 1 Day 10), 60 mg BID, N 5): 5.86 µg/mL
AUC(0-t) ([1]; oral, 60 mg, Steady state (Cycle 1 Day 10), 60 mg BID, N 5, read-out: AUC0-9): 38.1 µg·h/mL
AUC(0-t) ([1]; oral, 60 mg, Steady state (Cycle 1 Day 10), 60 mg BID, N 5, read-out: AUC0-12): 47.1 µg·h/mL
Tmax ([1]; oral, 60 mg, Steady state (Cycle 1 Day 10), 60 mg BID, N 5, median (range), read-out: Tmax): 1.13 h
AUC(0-inf) ([1]; oral, Single dose, 20 mg BID cohort, N 4): 10.2 µg·h/mL
AUC(0-inf) ([1]; oral, Single dose, 40 mg BID cohort, N 4): 19.3 µg·h/mL
AUC(0-inf) ([1]; oral, Single dose, 60 mg BID cohort, N 7): 27.5 µg·h/mL
Tmax ([1]; po, 60 mg, oral administration, RP2D of 60 mg BID, read-out: median Tmax): ~1 h
Plasma exposure after a single dose compared with FIH study ([1]; single-dose administration): similar
Steady-state exposure compared with FIH study ([1]; steady state): slightly higher
Clinical benefit rate (CR+PR+SD ≥24 weeks) [2, 7]: 62.5 % (95% CI) and 62.5 (24.5‐91.5) % (95% CI)
Disease control rate (CR+PR+SD) [2, 7]: 100 % (95% CI) and 100.0 (63.1‐100) % (95% CI)
Objective response rate (CR+PR) [2, 7]: 25.0 (3.2‐65.1) % (95% CI)
Best overall response: Complete response [2, 8]: 0 n (%)
Best overall response: Progressive disease [2, 8]: 0 n (%)
Event-free rate at 3 months (95% CI) ([2]; HGOC (n=9), Kaplan-Meier): 85.7 (33.41–97.86) %
Event-free rate at 6 months (95% CI) ([2]; HGOC (n=9), Kaplan-Meier): 68.6 (21.28–91.21) %
Event-free rate at 9 months (95% CI) ([2]; HGOC (n=9), Kaplan-Meier): 68.6 (21.28–91.21) %
Median PFS (95% CI) ([2]; HGOC (n=9), Kaplan-Meier, NE, not estimable): NE (2.86–NE)
PFS Events ([2]; HGOC (n=9), safety population): 2 (22.2) n (%)
Confirmed PR, gBRCA WT patients ([2]; RECIST-evaluable HGOC (n = 8)): 1 n
Confirmed PR, gBRCA mut patients ([2]; RECIST-evaluable HGOC (n = 8)): 1 n
Response duration at data cut-off ([2]; one patient with HGOC, 20 mg dose level, PR, treatment ongoing): 27.7 months
Clinical benefit rate (CR+PR+SD ≥24 weeks) [3, 9]: 0 % (95% CI)
Disease control rate (CR+PR+SD) [3, 9]: 0 % (95% CI)
Objective response rate (CR+PR) [3, 9]: 0 % (95% CI)
Best overall response: Complete response [3, 10]: 0 n (%)
Best overall response: Partial response [3, 10]: 0 n (%)
Best overall response: Stable disease [3, 10]: 0 n (%)
Median PFS (95% CI) ([3]; TNBC (n=6), Kaplan-Meier): 1.5 (1.45–1.61) months
Event-free rate at 3 months (95% CI) [3, 11]: 0 (NE–NE) %
Event-free rate at 6 months (95% CI) [3, 11]: 0 (NE–NE) %
Event-free rate at 9 months (95% CI) [3, 11]: 0 (NE–NE) %
PFS Events ([3]; TNBC (n=6), safety population): 5 (83.3) n (%)
PFS events: Disease progression ([3]; TNBC (n=6), safety population): 5 n (%) and 5 (83.3) n (%)
CA-125 response rate ([4]; HGOC (n=8), CA-125-evaluable population): 2 (25.0) n (%)
Time to response (per CA-125 criteria), Median (range) ([4]; HGOC, n 2 responders): 1.45 (1.4–1.5) months
Potency relative to olaparib (fold more potent) [5]: 10 fold
Recommended phase 2 dose (RP2D) ([6]; FIH study NCT02361723, PO): 60 mg BID
Linearity of pamiparib exposure ([6]; FIH study NCT02361723): linear up to 80 mg BID
Maximum tolerated dose (MTD) ([6]; FIH study NCT02361723): 80 mg BID
